One data set concerns B16F10 melanomas. The data set can be described thus: Bilateral flank tumors, i.t. amph-FITC only in the 1° lesion. The data set is classed as in vivo, C57BL/6 mice. An excerpt:
(§1) C57BL/6 WT, CD45.1^+, Batf3 KO, and Rag1 KO mice (Jackson Laboratory, 6 to 8 weeks old) were inoculated with 10^6 B16F10, 10^6 MC38, 10^6 TC-1, or 3×10^6 CT-2A tumor cells subcutaneously at the flank. Once tumors grew to ˜25 mm^2 in area, mice underwent a non-myeloablative 5 Gy dose of TBI administered by a [^137Cs] gamma radiation source, 24 hr prior to adoptive transfer of 10^7 CD45.1+ CAR T cells IV via the tail vein. One day later, mice were vaccinated subcutaneously at the tail base with 10 nmol DSPE-PEG2k-FITC (Creative PEGworks) and 25 μg cyclic di-GMP (Invivogen), and vaccinated for 3 total doses, once weekly. Intratumoral injection of 10 nmol amph-FITC was administered beginning the day after the first vaccination, and continuing every 3 days.
(§2) For all studies, tumor progression was monitored by caliper measurements. Survival was evaluated over time until tumors exceeded 200 mm^2 in area, were severely ulcerated >1 week, or experienced >20% weight loss. To monitor trafficking of Fluc-expressing CAR T cells, mice were injected subcutaneously at the scruff with 150 mg/kg D-luciferin K^+ Salt (Perkin-Elmer) and imaged on a Xenogen IVIS Spectrum. Prior to imaging, C57BL/6 mice were depilated on their back to improve signal sensitivity.

In data set [1] the test system is CT-2A tumors. Described as above. The data set is classed as in vivo, C57BL/6 mice. The note with it: FITC-CAR T cells, amph-FITC vaccination, i.t. amph-FITC right flank only.
Text: as §1, §2

In data set [2] the test system is B16F10 tumors.
Procedure: For cellular localization studies, MC38 tumor-bearing mice were injected intratumorally with 10 nmol DSPE-PEG2k-FITC, and 24 hr later tumors were enzymatically digested at 37° C. for 30 min with 1 mg/mL collagenase D and 0.2 mg/mL DNase I in complete RPMI media before mechanical dissociation through a 70 μm cell strainer.
Another data set has as its system MSTO-211H tumors. The data set can be described thus: Xenograft study with human CAR T cells and intratumoral amph-FITC. The data set is classed as in vivo. As for the experimental part: For xenograft studies, 6- to 12-week-old NOD.Cg-Prkdc^scidIL2rg^tm1Wj1/SzJ (NSG) mice (Jackson Laboratory) were inoculated with 3×10^6 MSTO-211H cells subcutaneously at the flank. Once tumors grew to ˜25 mm^2, mice were adoptively transferred with 10^7 CAR T cells IV via the tail vein. Intratumoral injection of 10 nmol amph-FITC was administered beginning the day after adoptive transfer, and continuing every 3 days.
as §2
For quantification of human CAR T cells in the peripheral blood, spleen, and tumor, tissues were processed as described above, then stained with LIVE/DEAD Aqua, BUV496 anti-CD4 (clone SK3/Leu3a, BD Biosciences), BUV805 anti-CD8α (clone SK1, BD Biosciences), PE anti-myc tag (clone 9B11, Cell Signaling), and APC-Cy7 anti-CD45 (clone 2D1, BioLegend).
(In xenograft studies the graft and the host belong to different species.)

A short description of data set [3]: Toxicity of amph-FITC and FITC CAR T therapy in tumor-bearing mice. The data set is classed as in vivo, C57BL/6 mice.
Text: as §1, §2

The subject of data set [4] is B16F10 tumors. The data set can be described thus: CAR T cell expansion and tumor homing by bioluminescence imaging. The data set is classed as in vivo, C57BL/6 mice.
Text: as §1, §2

Data set [5] relates to MC38 murine colon carcinoma cells. The data set can be described thus: Amph-FITC labeling of tumor cells in vitro, flow cytometry. The data set is classed as cell-based. The following applies: 100 nM, 30 min at 37° C. As for the experimental part: (§3) Amph-FITC labeling and cytotoxicity studies: For in vitro labeling of tumor cells with amph-FITC, tumor cells were washed with 1×PBS and incubated at a cell density of 10^6 cells/mL for 30 minutes at 37° C. with DSPE-PEGx-FITC, where x=0, 1, 2, 3.4, 5, or 10 kDa (Creative PEGworks) in PBS. For cocultures, target cells were labeled simultaneously with 100 nM amph-FITC and CellTrace Violet (ThermoFisher); 20,000 target cells were seeded per well in a 96-well flat-bottom plate with CAR T cells at the indicated effector-to-target ratios. Following a 16 hr incubation, cells were stained with SYTOX red (ThermoFisher) for flow cytometry, and IFN-γ in the supernatant was quantified using a Mouse IFN gamma Uncoated ELISA Kit (Invitrogen).
A general note: A flow cytometer gives signals particle by particle.

Data set [6] concerns B16F10 murine melanoma cells. The data set is described as above. The data set is classed as cell-based. The following applies: incubated 30 min at 37° C. How it is done: as §3
The test system of data set [7] is B16F10 tumors. The data set can be described thus: In vivo therapy study, tumor growth and survival. Set-up: species or system C57BL/6 mice. The following applies: addition of amph-FITC vaccine boosting to E2-28z CAR T cells + intratumoral amph-FITC.
Text: as §1, §2

Data set [8] relates to CT-2A tumors. The data set can be described thus: In vivo therapy study, tumor growth and survival. The arrangement: species or system C57BL/6 mice. The note with it: intratumoral once every 6 days instead of every 3 days.
Text: as §1, §2

Data set [9] concerns CT-2A tumors. The data set can be described thus: T cell infiltration of treated tumors, immunohistochemistry. The data set is classed as in vivo, C57BL/6 mice. The following applies: day 12, i.t. amph-FITC ± amph-FITC vaccine.
Text: as §1

The subject of the next data set is CT-2A glioblastoma cells. The data set can be described thus: Amph-FITC labeling of tumor cells in vitro, flow cytometry. The data set is classed as cell-based, murine. The note with it: 100 nM, 30 min at 37° C. How it is done:
as §3

Setting [10] is: injection of only the primary tumor.

Turning to “1,2-distearoyl-sn-glycero-3-phosphoethanolamine-PEG-FITC [amph-FITC]”, in the data set with B16F10 melanomas (setting [10]), the “growth of the treated primary tumor” value is given as “slowed growth” and the “progression of the untreated lesions” value is on record as “trend toward slowed progression”. Moreover, the overall survival entry with B16F10 melanomas (over untreated animals) was “substantial increases in overall survival”. In the data set on CT-2A tumors [1], the overall survival result is on record as “substantially improved”; the “progression of injected (1°) and non-injected (2°) tumors” value was “substantially slowed progression”. For the same substance, the “cellular distribution of FITC labeling after lymphodepletion” value with B16F10 tumors [2] (5 Gy TBI 24 hours prior to amph-FITC injection) is “favored labeling of cancer cells in an even greater proportion”. In addition, the “proportion of each cell type bearing extracellularly exposed FITC” value in the data set with B16F10 tumors [2] (after 1 hour, cancer cells and host cells) is 40-60%. In addition, in the data set with B16F10 tumors [2] (at 24 hours), the “proportion of cells still bearing exposed FITC” value is on record as 20-40%. The “cell type numerically dominant among cells surface-decorated with FITC” value with B16F10 tumors [2] (by 24 hours) is on record as “majority of cells surface-decorated with FITC were the cancer cells”. Also, the “graft vs. host disease” value in the data set on MSTO-211H tumors (mouse, in vivo) is “exacerbated GVHD”. Besides, in the data set on MSTO-211H tumors (whole mouse radiance), the “relative expansion of CAR T cells induced by amph-FITC treatment” value amounted to 13.3 fold. The body weight entry in [3] (CAR T cells with intratumoral amph-FITC and amph-FITC vaccination, versus untreated control) is “no weight loss”. Besides, in data set [3] (local i.t. administration during treatment), the “inflammation of the skin surrounding treated tumors” value was “no obvious inflammation”. Moreover, the “impact on overall T cell expansion or accumulation at the tumor site” value in the data set on B16F10 tumors [4] (addition of the vaccine boost to intratumoral amph-FITC) is recorded as “did not have a significant impact”. Also, in the data set with B16F10 tumors [4] (i.t. amph-FITC with E2-28z CAR T cells), the “CAR T cell expansion (bioluminescence)” value is on record as “triggered CAR T cell expansion”. Besides, the “CAR T cell accumulation at the tumor site” value with B16F10 tumors [4] (intratumoral amph-FITC compared with amph-FITC vaccination alone) is on record as “greater accumulation at the tumor site”. In addition, the “association with and exposure on cell surfaces” value in data set [5] is “associate with and be exposed on the surfaces”. In [6], the “FITC exposed on the cell surfaces (anti-FITC antibody staining)” value is listed as “exposed on the cell surfaces” and the “association of amph-FITC with the cells (total FITC)” value is listed as “dose-dependent association”. In addition, the “increase of median survival” value in the data set on B16F10 tumors [7] is 3 days. The “therapeutic effect at reduced injection frequency” value in the data set with CT-2A tumors [8] is reported as “did not reduce the therapeutic effect”. Also, the “T cell infiltration of treated tumors” value in the data set on CT-2A tumors [9] is “substantial T cell infiltration throughout the tumor”. In addition, in the data set with CT-2A glioblastoma cells, the “association with and exposure on cell surfaces” value was “associate with and be exposed on the surfaces”.
